Assay results from patent US20150203444A1, “POLYMORPHS OF N-((S)-3-AMINO-1-(HYDROXYAMINO)-3-METHYL-1-OXOBUTAN-2-YL)-4-(((1R,2R)-2-(HYDROXYMETHYL)CYCLOPROPYL)BUTA-1,3-DIYNYL)BENZAMIDE” (Achaogen, Inc., priority 2011, published 2015).
Where a name gives a salt, the structure may show the parent alone.

Tests used:
[1] = Stability at elevated humidity (XRPD form check); assay type: physicochemical; settings: summary statement
Experimental: Approximately 30 mg of Form A, Form B and Form C were placed on an XRPD slide and kept inside a glass jar containing a water solution saturated with NaCl. The solution maintains 75% relative humidity inside the jar. The container was covered with aluminum foil to prevent exposure to light. The sample was kept in this environment for seven days at room temperature. After this time period the slide was removed from the chamber and analyzed immediately by XRPD (see Table 4).

[2] = Competitive slurry experiments (XRPD); assay type: physicochemical; settings: competitive slurry of Forms A, B and C together, IPA:IBAc (10:90), room temperature
Experimental: Approximately 10 mg of Form A, B and C were weighed into 2.0-mL vials equipped with a stir bar. 0.5 mL of solvent was added and the resulting free flowing slurry was allowed to equilibrate with stirring at room temperature. Samples were pulled at one day and seven day time points, filtered through 0.45 micron centrifuge filters, dried overnight at room temperature under vacuum and analyzed by XRPD (see Table 7).

[3] = Stability at elevated temperature (XRPD form check and HPLC purity); assay type: physicochemical; settings: for % AUC (Following exposure): HPLC purity after seven days at 60° C.; for % AUC (Control): HPLC purity, control before exposure
Experimental: Approximately 10 mg of Form A, Form B and Form C were weighed to individual 4-mL amber vials covered with a kimwipe and stored in an oven at 60° C. and ambient pressure. After seven days of exposure, the solids were be analyzed by XRPD to check for form conversion and HPLC for purity (see Table 5).

[4] = Solid-state properties of the polymorphs (summary statement); assay type: physicochemical
[5] = test system: Klebsiella pneumoniae ATCC43816; test: MIC by broth microdilution (CLSI), AKPN001; assay type: cell-based; settings: ATCC43816, read-out: Minimum Inhibitory Concentration (MIC) AKPN001
Experimental: (§1) Bacterial isolates were cultivated from −70° C. frozen stocks by overnight passages at 35° C. in ambient air on Mueller-Hinton agar (Beckton Dickinson, Franklin Lakes, N.J.). Clinical isolates tested were obtained from various geographically diverse hospitals in the US and abroad (Focus Diagnostics, Herndon, Va. and JMI, North Liberty, Iowa). Quality control strains were from the American Type Culture Collection (ATCC; Rockville, Md.).
(§2) Minimum Inhibitory Concentrations (MICs) were determined by the broth microdilution method in accordance with the Clinical and Laboratory Standards Institute (CLSI) guidelines. In brief, organism suspensions were adjusted to a 0.5 McFarland standard to yield a final inoculum between 3×10^5 and 7×10^5 colony-forming units (CFU)/mL. Drug dilutions and inocula were made in sterile, cation adjusted Mueller-Hinton Broth (Beckton Dickinson). An inoculum volume of 100 μL was added to wells containing 100 μL of broth with 2-fold serial dilutions of drug. All inoculated microdilution trays were incubated in ambient air at 35° C. for 18-24 h. Following incubation, the lowest concentration of the drug that prevented visible growth (OD600 nm<0.05) was recorded as the MIC. Performance of the assay was monitored by the use of laboratory quality-control strains and levofloxacin, a compound with a defined MIC spectrum, in accordance with CLSI guidelines. […]

[6] = test system: Pseudomonas aeruginosa ATCC27853; test: MIC by broth microdilution (CLSI), APAE001; assay type: cell-based; settings: ATCC27853, read-out: Minimum Inhibitory Concentration (MIC) APAE001
Experimental: as §1, §2

[7] = test system: clinical isolate of Pseudomonas aeruginosa expressing a normal level of efflux activity; test: MIC by broth microdilution (CLSI), APAE002; assay type: cell-based; settings: read-out: Minimum Inhibitory Concentration (MIC) APAE002
Experimental: as §1, §2

E. coli ATCC25922 = test: MIC by broth microdilution (CLSI), AECO001; assay type: cell-based; settings: Escherichia coli, ATCC25922, read-out: Minimum Inhibitory Concentration (MIC) AECO001
Experimental: as §1, §2

SMILES | Stability to exposure to elevated relative humidity [1] | XRPD Final Form (1 day) [2] | % AUC (Following exposure) [3] [% AUC] | % AUC (Control) [3] [% AUC] | Stability to prolonged thermal stress ([3]; summary statement) | Thermodynamic stability among the three polymorphic forms [4] | MIC [5] [µg/mL] | MIC [6] [µg/mL] | MIC [7] [µg/mL] | MIC (E. coli ATCC25922) [µg/mL] | Hygroscopicity ([4]; solid)
CC(C)(N)[C@H](NC(=O)c1ccc(C#CC#C[C@@H]2C[C@H]2CO)cc1)C(=O)NO [Form B, N—((S)-3-amino-1-(hydroxyamino)-3-methyl-1-oxobutan-2-yl)-4-(((1R,2R)-2-(hydroxymethyl)cyclopropyl)buta-1,3-diynyl)benzamide] | exhibited stability | A + B | 97.4 | 99.6 | exhibited stability | most thermodynamically stable | – | – | – | – | –
CC(C)(N)[C@H](NC(=O)c1ccc(C#CC#C[C@@H]2C[C@H]2CO)cc1)C(=O)NO [I (trifluoroacetate salt), N—((S)-3-amino-1-(hydroxyamino)-3-methyl-1-oxobutan-2-yl)-4-(((1R,2R)-2-(hydroxymethyl)cyclopropyl)buta-1,3-diynyl)benzamide trifluoroacetate salt] | – | – | – | – | – | – | < 2 | < 2 | < 2 | < 2 | –
CC(C)(N)[C@H](NC(=O)c1ccc(C#CC#C[C@@H]2C[C@H]2CO)cc1)C(=O)NO [Form A, N—((S)-3-amino-1-(hydroxyamino)-3-methyl-1-oxobutan-2-yl)-4-(((1R,2R)-2-(hydroxymethyl)cyclopropyl)buta-1,3-diynyl)benzamide] | – | A + B | 94.5 | 99.2 | – | – | – | – | – | – | moderately hygroscopic
CC(C)(N)[C@H](NC(=O)c1ccc(C#CC#C[C@@H]2C[C@H]2CO)cc1)C(=O)NO [Form C, N—((S)-3-amino-1-(hydroxyamino)-3-methyl-1-oxobutan-2-yl)-4-(((1R,2R)-2-(hydroxymethyl)cyclopropyl)buta-1,3-diynyl)benzamide] | – | A + B | 95.5 | 99.0 | – | metastable | – | – | – | – | –
